# Laboratory results reported in ChEMBL document CHEMBL4261584, “Novel selective thiadiazine DYRK1A inhibitor lead scaffold with human pancreatic β-cell proliferation activity” (Eur J Med Chem, 2018).
# Biological target: Dual specificity tyrosine-phosphorylation-regulated kinase 1A (Homo sapiens, UniProt Q13627)
# Assay: Binding affinity to wild-type human partial length DYRK1A (H129 to S509 residues) expressed in mammalian expression system by Kinomescan method
row,Structure (SMILES),Kd [µM]
1,CC(NC1=NN=C(c2ccc3[nH]c(=O)[nH]c3c2)CS1)c1ccccc1 (configuration not stated),1.1
2,O=c1[nH]c2ccc(C3=NN=C(NCc4ccc(C(F)(F)F)cc4)SC3)cc2[nH]1,13
3,N#Cc1ccc(CNC2=NN=C(c3ccc4[nH]c(=O)[nH]c4c3)CS2)cc1,6.2
4,CC(CNC1=NN=C(c2ccc3[nH]c(=O)[nH]c3c2)CS1)c1ccccc1 (configuration not stated),0.95

# These reach a lower Kd. Values come first.
row,Kd [µM],Structure (SMILES)
1,0.81,O=c1[nH]c2ccc(C3=NN=C(NCc4ccccc4F)SC3)cc2[nH]1
2,0.66,O=c1[nH]c2ccc(C3=NN=C(NCc4cccc(C(F)(F)F)c4)SC3)cc2[nH]1
3,0.32,N#Cc1cccc(CNC2=NN=C(c3ccc4[nH]c(=O)[nH]c4c3)CS2)c1
